In patent publication US6737383B1, “Herbicidal oxadiazolidines” (priority 1999, dated 2004):

Legend:
bedstraw = test: Test B pre/postemergence bedstraw; format: in vivo, Galium aparine
How it was run: (§1)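 Test chemicals in a non-phytotoxic solvent mixture with surfactant were sprayed preemergence onto planted seeds and postemergence onto plants 2 to 18 cm tall (1- to 4-leaf stage). After twelve to sixteen days in a greenhouse, injury was visually rated against untreated controls from 0 (no effect) to 10 (complete control).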

blackgrass = test: Test B pre/postemergence blackgrass; format: in vivo, Alopecurus myosuroides
How it was run: as §1

surinam grass = test: Test B pre/postemergence surinam grass; format: in vivo, Brachiaria decumbens
How it was run: as §1

cocklebur = test: Test B pre/postemergence cocklebur; format: in vivo, Xanthium strumarium
How it was run: as §1

corn = test: Test B pre/postemergence corn; format: in vivo, Zea mays
How it was run: as §1

giant foxtail = test: Test B pre/postemergence giant foxtail; format: in vivo, Setaria faberii
How it was run: as §1

morningglory = test: Test B pre/postemergence morningglory; format: in vivo, Ipomoea hederacea
How it was run: as §1

pigweed = test: Test B pre/postemergence pigweed; format: in vivo, Amaranthus retroflexus
How it was run: as §1

rape = test: Test B pre/postemergence rape; format: in vivo, Brassica napus
How it was run: as §1

soybean = test: Test B pre/postemergence soybean; format: in vivo, Glycine max
How it was run: as §1

sugar beet = test: Test B pre/postemergence sugar beet; format: in vivo, Beta vulgaris
How it was run: as §1

velvetleaf = test: Test B pre/postemergence velvetleaf; format: in vivo, Abutilon theophrasti
How it was run: as §1

purple nutsedge = test: Test B pre/postemergence purple nutsedge; format: in vivo, Cyperus rotundus
How it was run: as §1

smallflower flatsedge = test: Test B flood test smallflower flatsedge; format: in vivo, Cyperus difformis
How it was run: (§2)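 Each value is a visual injury score relative to controls, with 10 meaning complete control and 0 no effect. Evaluation took place twelve to sixteen days after the 2-leaf-stage plants were treated and kept in the greenhouse.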

duck salad = test: Test B flood test duck salad; format: in vivo, Heteranthera limosa
How it was run: as §2

bamyardgrass = test: Test B flood test barnyardgrass; format: in vivo, Echinochloa crus-galli
How it was run: as §2

[1] = Postemergence, Rate 62 g/ha, scale 0 to 10, 0 is no effect, 10 is complete control
[2] = Postemergence, Rate 250 g/ha, scale 0 to 10, 0 no effect, 10 complete control
[3] = Preemergence, Rate 62 g/ha, scale 0 to 10, 0 is no effect, 10 is complete control
[4] = Preemergence, Rate 125 g/ha, scale 0 to 10 (0 no effect, 10 complete control)
[5] = Preemergence, Rate 250 g/ha, scale of 0 to 10 where 0 is no effect and 10 is complete control
[6] = Preemergence, Rate 500 g/ha, scale 0 (no effect) to 10 (complete control)
[7] = Rate 125 g/ha, Postemergence, scale 0 to 10, 0 no effect, 10 complete control
[8] = Rate 500 g/ha, Postemergence, 0 to 10 scale (0 no effect, 10 complete control)
[9] = Rate 125 g/ha, Postemergence section (flood test species), scale 0 to 10, 0 no effect, 10 complete control
[10] = flood test, listed under Postemergence, Rate 250 g/ha, scale 0 to 10, 0 no effect, 10 complete control
[11] = Rate 500 g/ha, Postemergence section of Table B, 0 to 10 scale (0 no effect, 10 complete control)

Cc1ccccc1-n1c(=O)on(C(=O)N(c2ccc([N+](=O)[O-])cc2)C(C)C)c1=O [Compound 44]
1: Blackgrass plant response rating (blackgrass; [6]) | Giant foxtail plant response rating (giant foxtail; [6]) | Morningglory plant response rating (morningglory; [8]) | Soybean plant response rating (soybean; [2])
0: Bedstraw plant response rating (bedstraw; [1]) | Bedstraw plant response rating (bedstraw; [2]) | Plant response rating, Bedstraw (bedstraw; [3]) | Plant response rating, Bedstraw (bedstraw; [4]) | Plant response rating, Bedstraw (bedstraw; [5]) | Bedstraw plant response rating (bedstraw; [6]) | Bedstraw plant response rating (bedstraw; [7]) | Bedstraw plant response rating (bedstraw; [8]) | Blackgrass plant response rating (blackgrass; [1]) | Blackgrass plant response rating (blackgrass; [2]) | Plant response rating, Blackgrass (blackgrass; [3]) | Plant response rating, Blackgrass (blackgrass; [4]) | Plant response rating, Blackgrass (blackgrass; [5]) | Blackgrass plant response rating (blackgrass; [7]) | Blackgrass plant response rating (blackgrass; [8]) | B. signalgrass plant response rating (surinam grass; [1]) | B. signalgrass plant response rating (surinam grass; [2]) | Plant response rating, B. signalgrass (surinam grass; [3]) | Plant response rating, B. signalgrass (surinam grass; [4]) | Plant response rating, B. signalgrass (surinam grass; [5]) | B. signalgrass plant response rating (surinam grass; [6]) | B. signalgrass plant response rating (surinam grass; [7]) | B. signalgrass plant response rating (surinam grass; [8]) | Cocklebur plant response rating (cocklebur; [1]) | Cocklebur plant response rating (cocklebur; [2]) | Plant response rating, Cocklebur (cocklebur; [3]) | Plant response rating, Cocklebur (cocklebur; [5]) | Cocklebur plant response rating (cocklebur; [6]) | Cocklebur plant response rating (cocklebur; [7]) | Cocklebur plant response rating (cocklebur; [8]) | Corn plant response rating (corn; [1]) | Corn plant response rating (corn; [2]) | Plant response rating, Corn (corn; [3]) | Plant response rating, Corn (corn; [4]) | Plant response rating, Corn (corn; [5]) | Corn plant response rating (corn; [6]) | Corn plant response rating (corn; [7]) | Corn plant response rating (corn; [8]) | Giant foxtail plant response rating (giant foxtail; [1]) | Giant foxtail plant response rating (giant foxtail; [2]) | Plant response rating, Giant foxtail (giant foxtail; [3]) | Plant response rating, Giant foxtail (giant foxtail; [4]) | Plant response rating, Giant foxtail (giant foxtail; [5]) | Giant foxtail plant response rating (giant foxtail; [7]) | Giant foxtail plant response rating (giant foxtail; [8]) | Morningglory plant response rating (morningglory; [1]) | Morningglory plant response rating (morningglory; [2]) | Plant response rating, Morningglory (morningglory; [3]) | Plant response rating, Morningglory (morningglory; [4]) | Plant response rating, Morningglory (morningglory; [5]) | Morningglory plant response rating (morningglory; [6]) | Morningglory plant response rating (morningglory; [7]) | Redroot pigweed plant response rating (pigweed; [1]) | Redroot pigweed plant response rating (pigweed; [2]) | Plant response rating, Redroot pigweed (pigweed; [3]) | Plant response rating, Redroot pigweed (pigweed; [4]) | Plant response rating, Redroot pigweed (pigweed; [5]) | Redroot pigweed plant response rating (pigweed; [6]) | Redroot pigweed plant response rating (pigweed; [7]) | Redroot pigweed plant response rating (pigweed; [8]) | Rape plant response rating (rape; [1]) | Rape plant response rating (rape; [2]) | Plant response rating, Rape (rape; [3]) | Plant response rating, Rape (rape; [4]) | Plant response rating, Rape (rape; [5]) | Rape plant response rating (rape; [6]) | Rape plant response rating (rape; [7]) | Rape plant response rating (rape; [8]) | Soybean plant response rating (soybean; [1]) | Plant response rating, Soybean (soybean; [3]) | Plant response rating, Soybean (soybean; [4]) | Plant response rating, Soybean (soybean; [5]) | Soybean plant response rating (soybean; [6]) | Soybean plant response rating (soybean; [7]) | Sugarbeets plant response rating (sugar beet; [1]) | Sugarbeets plant response rating (sugar beet; [2]) | Plant response rating, Sugarbeets (sugar beet; [3]) | Plant response rating, Sugarbeets (sugar beet; [4]) | Plant response rating, Sugarbeets (sugar beet; [5]) | Sugarbeets plant response rating (sugar beet; [6]) | Sugarbeets plant response rating (sugar beet; [7]) | Velvetleaf plant response rating (velvetleaf; [1]) | Velvetleaf plant response rating (velvetleaf; [2]) | Plant response rating, Velvetleaf (velvetleaf; [3]) | Plant response rating, Velvetleaf (velvetleaf; [4]) | Plant response rating, Velvetleaf (velvetleaf; [5]) | Velvetleaf plant response rating (velvetleaf; [6]) | Velvetleaf plant response rating (velvetleaf; [7]) | Nutsedge plant response rating (purple nutsedge; [1]) | Nutsedge plant response rating (purple nutsedge; [2]) | Plant response rating, Nutsedge (purple nutsedge; [3]) | Plant response rating, Nutsedge (purple nutsedge; [4]) | Plant response rating, Nutsedge (purple nutsedge; [5]) | Nutsedge plant response rating (purple nutsedge; [6]) | Nutsedge plant response rating (purple nutsedge; [7]) | Nutsedge plant response rating (purple nutsedge; [8]) | S. Flatsedge plant response rating (smallflower flatsedge; [1]) | S. Flatsedge plant response rating (smallflower flatsedge; [9]) | S. Flatsedge plant response rating (smallflower flatsedge; [10]) | Ducksalad plant response rating (duck salad; [1]) | Ducksalad plant response rating (duck salad; [9]) | Ducksalad plant response rating (duck salad; [11]) | Ducksalad plant response rating (duck salad; [10]) | Barnyardgrass plant response rating (bamyardgrass; [1]) | Barnyardgrass plant response rating (bamyardgrass; [9]) | Barnyardgrass plant response rating (bamyardgrass; [11]) | Barnyardgrass plant response rating (bamyardgrass; [10])
